Reference: the supplement of paper PMC4862054

Experiments:
Conditions in all cases: incubation time: 72 h
CAL-148 = assay: normalised viability (% of control), CellTiter-Blue; higher = more viable cells (about 100 = DMSO control)
Experimental: (§1)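 DSRT, CellTiter-Blue viability, 72 h incubation. Signal is normalised to DMSO and benzethonium chloride controls. Value is the normalised response at dose 7.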

CAL-51 [1] = assay: as above
Experimental: as §1

CAL-85-1 = assay: as above
Experimental: as §1

DU-4475 [2] = assay: as above
Experimental: as §1

HDQ-P1 = assay: as above
Experimental: as §1

MDA-MB-453 = assay: as above
Experimental: as §1

BT-549 = assay: drug sensitivity score (DSS), CellTox Green (DSS (AUC-based score)); higher = stronger drug effect (viability inhibition or cytotoxicity); extreme values may be limits of the assay
How it was run: (§2)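 Breast cancer cell lines (20 µl suspension) were seeded into 384-well plates holding compound at 5 concentrations in 10-fold steps over a compound-specific 10,000-fold range, then incubated 72 h. CellTox Green fluorescence (485/520 nm) was read first, then CellTiter-Glo luminescence after 10 min at room temperature. Each plate was normalised to 0.1 % DMSO and a positive kill control. The drug sensitivity score was calculated from the area under the fitted dose-response curve.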

CAL-120 = assay: as above
How it was run: as §2

CAL-51 [3] = assay: as above
How it was run: as §2

DU-4475 [4] = assay: as above
How it was run: as §2

HCC1937 = assay: as above
How it was run: as §2

MDA-MB-468 = assay: as above
How it was run: as §2

SMILES	normalised viability (CAL-148) [%]	normalised viability (CAL-51 [1]) [%]	normalised viability (CAL-85-1) [%]	normalised viability (DU-4475 [2]) [%]	normalised viability (HDQ-P1) [%]	normalised viability (MDA-MB-453) [%]	drug sensitivity score (BT-549)	drug sensitivity score (CAL-120)	drug sensitivity score (CAL-51 [3])	drug sensitivity score (DU-4475 [4])	drug sensitivity score (HCC1937)	drug sensitivity score (MDA-MB-468)
C=C(c1ccc(C(=O)O)cc1)c1cc2c(cc1C)C(C)(C)CCC2(C)C [Bexarotene] (1000 nM)	96.6	80.6	84.5	116	76	86.5	–	–	–	–	–	–
C[C@]12CC[C@@H]3c4ccc(O)cc4C[C@@H](CCCCCCCCC[S+]([O-])CCCC(F)(F)C(F)(F)F)[C@H]3[C@@H]1CC[C@@H]2O (stereo not given in full) [Fulvestrant] (1000 nM)	92.4	111	84.9	93.5	84.3	84.6	–	–	–	–	–	–
N[C@@H](CSC(c1ccccc1)(c1ccccc1)c1ccccc1)C(=O)O [S-trityl-L-cysteine] (4000 nM)	117	85.1	98.3	103	86.5	94.3	–	–	–	–	–	–
COc1cc2nccc(Oc3ccc(NC(=O)C4(C(=O)Nc5ccc(F)cc5)CC4)cc3)c2cc1OC [Cabozantinib] (100 nM)	107	102	79.6	91.8	85.5	95.3	–	–	–	–	–	–
Clc1ccc(Nc2nnc(Cc3ccncc3)c3ccccc23)cc1 [Vatalanib] (1000 nM)	83.4	101	92.5	97.8	98.6	91.6	–	–	–	–	–	–
NC(=O)Nc1cc(-c2cccc(F)c2)sc1C(=O)N[C@H]1CCCNC1 [AZD7762]	–	–	–	–	–	–	0	0	3.37	0	0	6.89
Cn1c(Nc2ccc(C(F)(F)F)cc2)nc2cc(Oc3ccnc(-c4ncc(C(F)(F)F)[nH]4)c3)ccc21 [RAF265] (100 nM)	101	86.1	80.5	104	74.6	83.7	–	–	–	–	–	–
CCC1=C[C@@H]2CN(C1)Cc1c([nH]c3ccccc13)[C@@](C(=O)OC)(c1cc3c(cc1OC)N(C)[C@H]1[C@@](O)(C(=O)OC)[C@H](OC(C)=O)[C@]4(CC)C=CCN5CC[C@]31[C@@H]54)C2 [Vinorelbine] (1000 nM)	21.1	19.7	37.5	29	38.6	28	–	–	–	–	–	–
CO[C@H]1/C=C\C=C(/C)C(=O)NC2=CC(=O)C(NCCN(C)C)=C(C[C@@H](C)C[C@H](OC)[C@H](O)[C@@H](C)/C=C(\C)[C@@H]1OC(N)=O)C2=O [Alvespimycin] (100 nM)	15.6	34.7	33.1	0.89	38	6.21	–	–	–	–	–	–
O=C(CCCCCCC(=O)Nc1ccc([C@H]2O[C@@H](CSc3nc(-c4ccccc4)c(-c4ccccc4)o3)C[C@@H](c3ccc(CO)cc3)O2)cc1)NO [Tubacin]	–	–	–	–	–	–	0	0	3.54	0	10.6	0
O=C(O)c1ccc(-c2c[nH]c3ncc(-c4ccccc4)cc23)cc1C1CCCC1	–	–	–	–	–	–	0	0	0	0	–	0
O=C1CCC(N2C(=O)c3ccccc3C2=O)C(=O)N1 (stereo not given) [Thalidomide] (1000 nM)	116	84.8	99.4	97	81.1	103	–	–	–	–	–	–
O=P1(NCCCl)OCCCN1CCCl (stereo not given) [Ifosfamide] (1000 nM)	101	114	81.2	101	103	112	–	–	–	–	–	–
C[C@@H](Oc1cc(-c2cnn(C3CCNCC3)c2)cnc1N)c1c(Cl)ccc(F)c1Cl [Crizotinib] (1000 nM)	96.4	108	86.9	108	92.5	91.9	–	–	–	–	–	–
Cn1c(CCCC(=O)O)nc2cc(N(CCCl)CCCl)ccc21 [Bendamustine] (1000 nM)	117	109	86.3	112	108	102	–	–	–	–	–	–
Cc1ccc(C(=O)N(CCCN)[C@@H](c2oc3cc(Cl)ccc3c(=O)c2Cc2ccccc2)C(C)C)cc1 (100 nM)	18.9	34.7	30.1	43	72.5	25.4	–	–	–	–	–	–
